Key:
[1] = molecular target: T1, CalA3 (Streptomyces chartreusis, UniProt A0A2N9BJK0); assay: HPLC turnover assay at […] nm, products confirmed by LC-HRMS and NMR; format: biochemical; settings: 5 µM CalA3, 0.15 mM SNAC-N1, 0.5 mM 3-HAA, 25 mM Tricine pH 7.5, 30 °C, 13 h; amidation and hydrolysis
T1 construct: gene SCNRRL3882_6975; full length, gene 5178 bp, C-terminal 6xHis tag (pET28a), E. coli BAP1; about 180 kDa per chain, homodimer about 360 kDa; domains DD-KS-LD-AT-DH-psiKR/KR, no ACP

[2] = molecular target: T1, CalA3; assay: cryo-EM structure, […] Å; format: binding; settings: KS substrate tunnel, chain A only; specimen also contained 3-HAA; PDB id assigned by order of listing
[3] = molecular target: T1, CalA3; assay: cryo-EM structure, […] Å; format: binding; settings: KS substrate tunnel, chains A and B; specimen also contained 3-HAA; PDB id assigned by order of listing
[4] = molecular target: CalA3 (Streptomyces chartreusis NRRL 3882); assay: cryo-EM structure; purified CalA3 at ~4 mg/mL in 50 mM Tricine pH 8.0 with 1 mM 3-HAA and SNAC-N1 (further samples at ~4.5 mg/mL with amidation or hydrolysis product and 3-HAA); Titan Krios 300 kV, K3 detector; homodimer

T1 sequence (A0A2N9BJK0 1-1727): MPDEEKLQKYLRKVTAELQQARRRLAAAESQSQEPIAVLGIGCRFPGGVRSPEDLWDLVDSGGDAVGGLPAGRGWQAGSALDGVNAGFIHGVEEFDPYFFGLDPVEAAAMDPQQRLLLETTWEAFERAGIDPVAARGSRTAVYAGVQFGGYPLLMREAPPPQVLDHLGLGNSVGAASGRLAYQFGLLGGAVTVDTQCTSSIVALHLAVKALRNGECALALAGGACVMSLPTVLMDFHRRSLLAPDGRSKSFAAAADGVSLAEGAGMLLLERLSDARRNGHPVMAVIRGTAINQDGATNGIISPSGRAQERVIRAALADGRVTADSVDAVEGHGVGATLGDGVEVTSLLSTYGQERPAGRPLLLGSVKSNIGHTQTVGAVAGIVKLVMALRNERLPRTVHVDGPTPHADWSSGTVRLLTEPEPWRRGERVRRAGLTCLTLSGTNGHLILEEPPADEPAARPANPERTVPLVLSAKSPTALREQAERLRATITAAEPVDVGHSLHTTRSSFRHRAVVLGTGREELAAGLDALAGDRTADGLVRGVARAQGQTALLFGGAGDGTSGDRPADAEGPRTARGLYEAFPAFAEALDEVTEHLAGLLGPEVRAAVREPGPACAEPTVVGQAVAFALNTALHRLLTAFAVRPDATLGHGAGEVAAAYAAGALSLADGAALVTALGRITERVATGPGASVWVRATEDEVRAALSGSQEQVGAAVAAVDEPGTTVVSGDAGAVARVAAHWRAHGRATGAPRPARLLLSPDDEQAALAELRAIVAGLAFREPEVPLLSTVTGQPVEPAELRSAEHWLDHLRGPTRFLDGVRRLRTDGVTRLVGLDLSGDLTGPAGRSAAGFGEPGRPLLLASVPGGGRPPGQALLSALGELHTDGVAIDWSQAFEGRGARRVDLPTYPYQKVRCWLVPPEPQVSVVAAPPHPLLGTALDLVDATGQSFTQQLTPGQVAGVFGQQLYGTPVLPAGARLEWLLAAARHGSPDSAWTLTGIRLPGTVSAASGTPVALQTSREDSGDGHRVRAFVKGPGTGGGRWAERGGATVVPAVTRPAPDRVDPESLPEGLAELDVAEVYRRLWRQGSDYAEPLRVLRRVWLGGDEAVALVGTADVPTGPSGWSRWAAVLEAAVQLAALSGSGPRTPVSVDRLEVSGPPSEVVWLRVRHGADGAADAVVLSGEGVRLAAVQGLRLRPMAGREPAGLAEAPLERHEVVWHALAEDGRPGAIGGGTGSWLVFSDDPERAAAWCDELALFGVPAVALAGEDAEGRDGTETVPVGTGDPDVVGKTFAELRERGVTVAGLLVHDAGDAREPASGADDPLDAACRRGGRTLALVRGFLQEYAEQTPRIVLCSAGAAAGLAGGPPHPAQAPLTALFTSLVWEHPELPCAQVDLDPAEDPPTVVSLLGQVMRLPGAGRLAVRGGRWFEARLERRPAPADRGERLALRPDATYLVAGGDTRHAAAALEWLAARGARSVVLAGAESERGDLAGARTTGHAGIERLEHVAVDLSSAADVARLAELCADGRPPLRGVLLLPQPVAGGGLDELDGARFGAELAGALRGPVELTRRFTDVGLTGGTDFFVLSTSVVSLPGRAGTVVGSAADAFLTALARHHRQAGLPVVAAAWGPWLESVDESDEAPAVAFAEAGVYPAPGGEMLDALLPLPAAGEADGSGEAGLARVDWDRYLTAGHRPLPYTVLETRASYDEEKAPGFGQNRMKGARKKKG

CC(=O)NCCSC(=O)CCCCCCCCCC(=O)c1ccc[nH]1 [compound 1, SNAC-N1]
HPLC turnover assay at 290 nm, products confirmed by LC-HRMS and NMR [1]: SNAC-N1 and 3-HAA were incubated with CalA3, and a total of three peaks were detected

O=C(O)CCCCCCCCCC(=O)c1ccc[nH]1 [compound 2, 11-oxo-11-(pyrrol-2-yl) undecanoic acid]
cryo-EM structure, 3.97 Å [2]: the hydrolysis product was captured only in the KS domain of chain A

O=C(CCCCCCCCCC(=O)c1ccc[nH]1)Nc1c(O)cccc1C(=O)O [compound 3, amidation product]
cryo-EM structure, 3.84 Å [3]: the amidation products were captured in the KS domains of both chain A and B

CalA3 (enzyme)
stoichiometry N [4]: 2
